Reference: paper PMC8819286 (Cancer Science, 2021)
Where two headings read alike, the source gives them in different places. One block for each molecule: values may come before it.

Key:
[1] = test system: PC‐9‐OR cells (EGFR^19del/T790M/C797S); experiment: Proliferation assay; format: cell-based; details: PC9-OR, 72 h, read-out: IC50, antiproliferative, PC‐9‐OR cells
[2] = test system: BaF3‐EGFR^19del/T790M cells; experiment: Proliferation assay; format: cell-based; details: 72 h, read-out: IC50, antiproliferative, BaF3‐EGFR^19del/T790M
[3] = test system: PC‐9‐OR cells; experiment: Apoptosis, Annexin V‐FITC/PI flow cytometry; format: cell-based; details: concentrations between 30 nmol/L and 300 nmol/L, 48 h
[4] = test system: EGFR^T790M patients; details: cited from earlier work
[5] = test system: BaF3‐EGFR^19del/T790M/C797S cells; experiment: Apoptosis, Annexin V‐FITC/PI flow cytometry; format: cell-based; details: concentrations between 30 nmol/L and 300 nmol/L, 48 h
[6] = test system: PC‐9 (EGFR^19del) cells; experiment: Proliferation assay; format: cell-based; details: Homo sapiens, PC-9, 72 h, read-out: IC50, antiproliferative, PC‐9 cells
[7] = test system: BaF3‐EGFR^19del/T790M/C797S cells; experiment: Proliferation assay; format: cell-based; details: 72 h, read-out: IC50, antiproliferative, BaF3‐EGFR^19del/T790M/C797S
[8] = test system: EGFR^19del/T790M/C797S–triple‐mutant cells; details: cited from earlier work

IC50 [2]: 40 nM
IC50 [7]: 3380 nM
SMILES: C=CC(=O)Nc1cc(Nc2nccc(-c3cn(C)c4ccccc34)n2)c(OC)cc1N(C)CCN(C)C [Osimertinib]
IC50 [1]: 4850 nM
apoptosis (in words) [3]: hardly caused any significant apoptosis
response rate [4]: 61%
apoptosis (in words) [5]: hardly caused any significant apoptosis
IC50 [6]: 80 nM

SMILES: COc1cc(N2CCC(N3CCN(C)CC3)CC2)ccc1Nc1ncc(Cl)c(Nc2ccccc2P(C)(C)=O)n1 [Brigatinib]
effectiveness against EGFR^19del/T790M/C797S–triple‐mutant cells ([8]; in vitro and in vivo): effective

SMILES: O=C(Nc1nccs1)C(c1cc(F)ccc1O)N1Cc2ccccc2C1=O (stereo not shown) [EAI045]
effectiveness against EGFR^19del/T790M/C797S–triple‐mutant cells [8]: not effective

SMILES: O=C(Nc1nccs1)C(c1cc(F)ccc1O)N1Cc2ccc(-c3ccc(N4CCNCC4)cc3)cc2C1=O (stereo not shown) [JBJ‐04‐125‐02]
effectiveness against EGFR^19del/T790M/C797S–triple‐mutant cells [8]: not effective
